Key:
PIM1 = target: T1, PIM1 (Homo sapiens, UniProt P11309); assay: Kinase assay; assay type: biochemical
T1 construct: purchased Promega (ADP-Glo kits) or Reaction Biology Corporation / Eurofins discovery services (external)
Procedure: (§1) The ability of compounds to inhibit kinases was measured using ADP-Glo^Tm assay kits (Promega, Madison, WI, United States of America) or externally using radioisotope based assays (Reaction Biology Corporation, Malvern, PA, United States of America and Eurofins discovery services, France). The ADP-Glo assay was performed as reported previously (Basnet SK et al., Mol Pharmacol 88(5):935-948, 2015).The assay plate was read for luminescence using Envision multi-label plate reader (PerkinElmer, Waltham, MA, United States of America). Half-maximal inhibition (IC50) values were determined from a plot of percent residual activity versus concentration of test compounds using GraphPad Prism software. Ki values were calculated from IC50 values using the Cheng-Prusoff equation: Ki= IC50/ [1 + ([ATP]/Km ATP)], where [ATP] is the ATP concentration used for the IC50 determination and Km ATP for each kinase is determined from an individual experiment.

Aurora B kinase = target: T2, Aurora B kinase (Homo sapiens, UniProt Q96GD4); assay: Kinase assay; assay type: biochemical; settings: kinase inhibition profiling (FIG. 2), concentration of 10 µM
T2 construct: purchased Promega (ADP-Glo kits) or Reaction Biology Corporation / Eurofins discovery services (external)
T2 sequence (Q96GD4 whole entry): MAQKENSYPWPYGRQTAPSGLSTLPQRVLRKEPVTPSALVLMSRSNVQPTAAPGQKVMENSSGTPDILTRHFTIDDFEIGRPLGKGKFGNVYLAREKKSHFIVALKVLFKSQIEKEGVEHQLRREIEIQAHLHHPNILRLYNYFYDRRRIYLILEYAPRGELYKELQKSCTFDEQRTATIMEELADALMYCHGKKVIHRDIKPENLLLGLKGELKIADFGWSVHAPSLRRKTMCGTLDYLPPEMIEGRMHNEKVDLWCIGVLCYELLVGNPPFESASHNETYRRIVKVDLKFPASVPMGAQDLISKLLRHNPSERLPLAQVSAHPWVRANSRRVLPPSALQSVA
Procedure: as §1

JAK1 = target: T3, JAK1 (Homo sapiens, UniProt P23458); assay: Kinase assay; assay type: biochemical; settings: kinase inhibition profiling (FIG. 2), concentration of 10 µM
T3 construct: purchased Promega (ADP-Glo kits) or Reaction Biology Corporation / Eurofins discovery services (external)
T3 sequence (P23458 whole entry): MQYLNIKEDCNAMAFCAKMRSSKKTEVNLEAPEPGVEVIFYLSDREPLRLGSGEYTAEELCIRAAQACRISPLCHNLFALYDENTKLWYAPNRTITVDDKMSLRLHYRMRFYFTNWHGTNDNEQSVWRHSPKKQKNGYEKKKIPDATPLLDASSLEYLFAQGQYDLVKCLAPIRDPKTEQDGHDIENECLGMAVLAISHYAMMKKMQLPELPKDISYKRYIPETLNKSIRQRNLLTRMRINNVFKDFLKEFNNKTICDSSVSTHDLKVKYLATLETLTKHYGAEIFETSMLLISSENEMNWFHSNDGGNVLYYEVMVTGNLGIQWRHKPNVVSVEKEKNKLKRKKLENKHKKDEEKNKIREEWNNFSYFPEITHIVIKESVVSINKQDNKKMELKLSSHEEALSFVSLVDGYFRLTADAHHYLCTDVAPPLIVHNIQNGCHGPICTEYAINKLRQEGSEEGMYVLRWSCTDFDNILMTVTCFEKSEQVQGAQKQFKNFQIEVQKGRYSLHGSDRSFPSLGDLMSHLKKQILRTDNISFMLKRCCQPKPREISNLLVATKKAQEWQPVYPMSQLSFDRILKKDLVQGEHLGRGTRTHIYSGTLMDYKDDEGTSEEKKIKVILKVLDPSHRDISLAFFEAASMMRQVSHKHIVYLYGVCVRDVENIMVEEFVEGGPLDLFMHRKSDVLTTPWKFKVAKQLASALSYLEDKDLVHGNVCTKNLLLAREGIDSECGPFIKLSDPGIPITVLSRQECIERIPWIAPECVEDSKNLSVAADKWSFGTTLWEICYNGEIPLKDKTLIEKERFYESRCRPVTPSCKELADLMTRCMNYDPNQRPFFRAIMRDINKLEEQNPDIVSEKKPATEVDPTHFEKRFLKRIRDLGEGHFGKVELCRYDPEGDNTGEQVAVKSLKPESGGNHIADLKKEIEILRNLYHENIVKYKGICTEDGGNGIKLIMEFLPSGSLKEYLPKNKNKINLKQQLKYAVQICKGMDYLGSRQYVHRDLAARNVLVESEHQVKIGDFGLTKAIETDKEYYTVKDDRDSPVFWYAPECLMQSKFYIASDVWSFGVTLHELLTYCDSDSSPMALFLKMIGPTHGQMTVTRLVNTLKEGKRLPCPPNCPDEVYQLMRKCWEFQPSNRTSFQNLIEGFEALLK
Procedure: as §1

Aurora A kinase = target: T4, Aurora A kinase (Homo sapiens, UniProt O14965); assay: Kinase assay; assay type: biochemical
T4 construct: purchased Promega (ADP-Glo kits) or Reaction Biology Corporation / Eurofins discovery services (external)
T4 sequence (O14965 1-403): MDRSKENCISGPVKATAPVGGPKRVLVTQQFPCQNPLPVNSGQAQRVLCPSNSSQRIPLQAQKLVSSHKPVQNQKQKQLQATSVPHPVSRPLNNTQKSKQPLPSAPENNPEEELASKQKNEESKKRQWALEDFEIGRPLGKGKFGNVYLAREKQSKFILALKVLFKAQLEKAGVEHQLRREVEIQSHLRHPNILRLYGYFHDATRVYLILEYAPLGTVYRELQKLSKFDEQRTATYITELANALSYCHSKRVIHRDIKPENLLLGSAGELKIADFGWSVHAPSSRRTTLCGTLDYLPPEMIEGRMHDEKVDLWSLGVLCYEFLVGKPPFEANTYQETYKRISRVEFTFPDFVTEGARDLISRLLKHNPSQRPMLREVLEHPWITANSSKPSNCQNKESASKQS
Procedure: as §1

FLT3 = target: T5, FLT3 (Homo sapiens, UniProt P36888); assay: Kinase assay; assay type: biochemical; settings: kinase inhibition profiling (FIG. 2), concentration of 10 µM
T5 construct: purchased Promega (ADP-Glo kits) or Reaction Biology Corporation / Eurofins discovery services (external)
T5 sequence (P36888 27-993): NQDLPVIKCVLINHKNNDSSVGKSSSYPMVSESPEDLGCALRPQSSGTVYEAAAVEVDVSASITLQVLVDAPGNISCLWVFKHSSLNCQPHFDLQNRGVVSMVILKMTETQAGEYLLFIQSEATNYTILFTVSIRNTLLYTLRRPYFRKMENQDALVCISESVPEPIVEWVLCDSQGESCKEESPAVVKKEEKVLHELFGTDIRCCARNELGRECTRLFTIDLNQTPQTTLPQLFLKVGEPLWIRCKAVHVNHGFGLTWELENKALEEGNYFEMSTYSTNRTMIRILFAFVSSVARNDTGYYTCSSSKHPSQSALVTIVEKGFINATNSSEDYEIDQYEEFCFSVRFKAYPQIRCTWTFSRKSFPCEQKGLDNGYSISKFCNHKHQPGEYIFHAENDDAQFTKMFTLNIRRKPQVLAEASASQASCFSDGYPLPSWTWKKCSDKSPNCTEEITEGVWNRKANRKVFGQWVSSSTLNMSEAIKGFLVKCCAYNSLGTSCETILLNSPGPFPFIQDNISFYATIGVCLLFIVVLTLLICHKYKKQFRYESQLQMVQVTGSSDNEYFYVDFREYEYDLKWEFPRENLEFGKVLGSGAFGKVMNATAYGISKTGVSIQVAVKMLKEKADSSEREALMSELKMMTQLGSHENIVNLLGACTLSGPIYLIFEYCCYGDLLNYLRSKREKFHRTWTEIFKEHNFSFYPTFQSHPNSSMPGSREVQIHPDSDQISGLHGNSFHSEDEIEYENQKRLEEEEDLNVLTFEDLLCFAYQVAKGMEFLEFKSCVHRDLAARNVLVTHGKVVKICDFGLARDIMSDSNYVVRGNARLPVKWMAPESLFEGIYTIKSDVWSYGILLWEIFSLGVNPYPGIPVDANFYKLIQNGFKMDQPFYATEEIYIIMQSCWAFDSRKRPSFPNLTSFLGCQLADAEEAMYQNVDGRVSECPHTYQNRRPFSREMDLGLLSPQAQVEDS
Procedure: as §1

LYN = target: T6, LYN (Homo sapiens, UniProt P07948); assay: Kinase assay; assay type: biochemical; settings: expanded panel, read-out: percent inhibition
T6 construct: purchased Promega (ADP-Glo kits) or Reaction Biology Corporation / Eurofins discovery services (external)
T6 sequence (P07948 whole entry): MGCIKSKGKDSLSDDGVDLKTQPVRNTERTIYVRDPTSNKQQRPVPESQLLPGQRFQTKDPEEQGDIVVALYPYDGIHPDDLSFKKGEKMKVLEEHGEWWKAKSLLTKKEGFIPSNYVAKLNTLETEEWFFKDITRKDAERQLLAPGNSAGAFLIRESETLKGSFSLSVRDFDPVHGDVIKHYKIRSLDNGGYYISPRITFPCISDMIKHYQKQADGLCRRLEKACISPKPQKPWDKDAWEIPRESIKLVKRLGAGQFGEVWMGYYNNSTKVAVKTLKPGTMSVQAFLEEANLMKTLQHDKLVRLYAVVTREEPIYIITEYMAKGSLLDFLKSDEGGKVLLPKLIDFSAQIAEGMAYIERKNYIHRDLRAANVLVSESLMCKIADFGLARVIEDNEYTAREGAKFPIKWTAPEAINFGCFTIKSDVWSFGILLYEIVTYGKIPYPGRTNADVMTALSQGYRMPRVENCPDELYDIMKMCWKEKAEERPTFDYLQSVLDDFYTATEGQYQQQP
Procedure: as §1

YES kinase = target: T7, YES kinase (Homo sapiens, UniProt P07947); assay: Kinase assay; assay type: biochemical; settings: expanded panel, read-out: percent inhibition
T7 construct: purchased Promega (ADP-Glo kits) or Reaction Biology Corporation / Eurofins discovery services (external)
T7 sequence (P07947 whole entry): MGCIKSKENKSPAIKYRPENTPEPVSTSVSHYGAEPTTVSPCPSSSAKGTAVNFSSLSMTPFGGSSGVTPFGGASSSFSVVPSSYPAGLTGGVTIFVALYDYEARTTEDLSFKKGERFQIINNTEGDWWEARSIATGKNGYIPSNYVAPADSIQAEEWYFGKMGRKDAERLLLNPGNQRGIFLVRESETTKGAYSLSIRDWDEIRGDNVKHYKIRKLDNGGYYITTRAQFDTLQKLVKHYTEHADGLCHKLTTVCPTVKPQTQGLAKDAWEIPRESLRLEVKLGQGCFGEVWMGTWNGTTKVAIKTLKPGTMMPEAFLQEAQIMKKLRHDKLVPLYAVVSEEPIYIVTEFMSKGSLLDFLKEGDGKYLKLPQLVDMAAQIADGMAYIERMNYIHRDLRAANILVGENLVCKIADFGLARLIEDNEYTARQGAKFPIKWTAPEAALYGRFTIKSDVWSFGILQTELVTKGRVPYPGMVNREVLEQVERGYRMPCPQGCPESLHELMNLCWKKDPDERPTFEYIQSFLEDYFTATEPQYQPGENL
Procedure: as §1

[1] = tested on: cleavage of PARP in p53 WT A2780 cells; assay: Western blot, PARP cleavage; assay type: cell-based; settings: 48 hour treatments, various concentrations
Procedure: For Western blotting, cells (8×10^5) were seeded in a culture dish with 10 mL medium and incubated overnight at 37° C., 5% CO2. Untreated and compound-treated cells were lysed using phosphate lysis buffer and protease inhibitors. The protein concentration of each sample was determined by Bio-Rad DC™ protein assay (Bio-Rad Laboratories, Hercules, CA, United States of America). The protein was deactivated at 95° C. for 5 min and then resolved on 4-20% polyacrylamide gels by electrophoresis. Proteins were transferred to polyvinylidene difluoride (PDVF) membrane and blocked for 1 h with 10% skimmed milk (SM) in Tris-buffered saline and Tween (TBST). After adding primary antibody, the membranes were incubated overnight on a rocker in a 4° C. cold room. The following day, membranes were washed in TBST (4×20 min), incubated for at least 1 h at room temperature with the appropriate horseradish peroxidase conjugated secondary antibody. Following this, the blots were washed with TBST (4×20 min) again. The blots were then treated with Western blotting detection reagent and the band intensity was determined using a Bio-Rad ChemiDoc™ MP imaging system (Bio-Rad Laboratories). All the antibodies used for protein detection were from Cell Signaling Technology (Danvers, MA, United States of America). […]

[2] = 1 µM, expanded panel, read-out: percent inhibition
[3] = kinase inhibition profiling (FIG. 2), concentration of 10 µM

T1 sequence (P11309 whole entry): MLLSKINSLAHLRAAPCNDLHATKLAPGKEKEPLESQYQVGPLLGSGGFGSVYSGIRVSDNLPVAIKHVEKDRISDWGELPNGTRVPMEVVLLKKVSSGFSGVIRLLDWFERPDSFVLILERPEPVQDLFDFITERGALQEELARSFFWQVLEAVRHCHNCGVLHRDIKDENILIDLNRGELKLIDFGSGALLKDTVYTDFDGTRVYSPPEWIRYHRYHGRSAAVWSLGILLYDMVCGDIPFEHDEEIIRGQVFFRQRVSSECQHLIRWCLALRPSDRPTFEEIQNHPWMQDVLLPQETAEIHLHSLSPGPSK

## Cc1cc(/C=C/C#N)cc(C)c1Nc1ccnc(Nc2ccc(C#N)cc2)n1 [Rilpivirine, 4-[[4-[4-[(E)-2-cyanoethenyl]-2,6-dimethylanilino]pyrimidin-2-yl]amino]benzonitrile]
PIM1; [2]
  inhibition at 1 µM: 78%
PIM1; [3]
  inhibitory activity against PIM1: some inhibitory activity
Aurora B kinase
  inhibitory activity against Aurora B: some inhibitory activity
JAK1
  inhibitory activity against JAK1: some inhibitory activity
Aurora A kinase; [2]
  inhibition at 1 µM: 86%
Aurora A kinase; cell free kinase assay
  Ki: 130 nM
Aurora A kinase; [3]
  inhibitory activity against Aurora A: potently inhibits
FLT3
  inhibitory activity against FLT3: some inhibitory activity
LYN
  inhibition at 1 µM: 77%
YES kinase
  inhibition at 1 µM: 83%
[1]
  cleavage of PARP: apoptosis is associated with cleavage of PARP
